This is an account of results in a melting point compilation (Tetko et al.; mined from patent text by program, amines drawn as free bases though some values may be those of a salt).

One may read the melting point as the temperature, or range, at which the solid turns liquid.

Consider `CCCCC(C)C(=O)C=P(c1ccccc1)(c1ccccc1)c1ccccc1` (configuration not stated), for which the melting point lay in the range of 107 to 109 °C.

Consider `CN1CCN(Cc2ccc(C(=O)Nc3ccc(CO)c(Nc4nccc(-c5cccnc5)n4)c3)cc2)CC1`, for which the melting point fell in the range of 196 to 198 °C. The value for `CNC1([C@@H]2CCN(c3cc(N)c4c(=O)c(C(=O)O)cn([C@@H]5C[C@@H]5F)c4c3C)C2)CC1` was 129 to 131 °C. Turning to `Clc1cccc(N2CCN(CCCCNc3ccc(-c4ccccc4)cn3)CC2)c1Cl`, the melting point was found to be 110 °C. For the compound `CCn1cc(-c2nc(C#N)c(N)nc2-c2ccccc2)ccc1=O`, the melting point is 193 to 199 °C. Then `C=Cc1c(N)cc(-c2ccc(Cl)c(OC)c2F)nc1C(=O)O`, with 209 to 211 °C; and `O=C1CCN(c2ccc(CC3SC(=O)NC3=O)cc2F)CC1` (configuration not stated), with 129 to 130 °C; and `O=C(O)c1nc2ccc(O)cc2[nH]1`, with 206 to 207 °C. Then `CSCCNC(=O)c1cccc(-c2cccc3c(C)c(Cc4cccc(C(F)(F)F)c4)oc23)c1`, with 138 to 139 °C. Regarding `O=C(O)c1cc2c(F)ccc(Br)c2s1`, the melting point was 249 to 252 °C.

In turn, `CNC(=O)c1cc2nc(C)c(C)nc2c(Cl)c1NC(=O)c1cc(C(F)(F)F)nn1-c1ncccc1Cl` gave a melting point of 221 to 224 °C.

`NC(=O)c1cn(Cc2ccccc2F)nn1` displayed a melting point of 220 to 222 °C. The compound `CCN(C)c1nc2cccc(C(=O)OC)c2n1Cc1ccc(-c2ccccc2C#N)cc1` gave a melting point of 66 to 69 °C.

Compound `O=C(Nc1ncccn1)c1c(O)ccc2cc(-c3cccc(O)c3)ccc12` returned a melting point of 156 °C. The value for `COCCOc1cc2ncnc(NC3=CC(=O)C(NCc4cccc(C)c4)=CC3=O)c2cc1OC` was 241 to 242 °C. Then `N#Cc1cc(Br)ccc1NC(=O)c1cccc(S(=O)(=O)N2CCOCC2)c1`, with 185 to 187 °C; and `COC(=O)[C@H](Cc1cccc2ccccc12)NC(=O)[C@H](CC(=O)OC(C)(C)C)NC(=O)c1cccc(N)c1`, with 70 to 72 °C.

Turning to `COC(=O)c1cc2nccnc2c(Cl)c1N`, the melting point was in the range of 182 to 184 °C. As for `CCCCCCNc1nc[nH]c2nccc1-2`, the melting point lay in the range of 147 to 148 °C. The value for `COC1(c2ccccc2)N=CC(=O)N(C)c2ccc([N+](=O)[O-])cc21` (configuration not stated) was 163 to 164 °C; that for `O=Cc1cccc2sc(-c3ccccc3)nc12` was 127 to 128 °C; that for `CCC(=O)Oc1ccc2c(c1)CCC1C2CCC2(C)C1CC(O)C2NC` (configuration not stated) was 182 to 185 °C. The value for `COC(=O)c1nsc(NC=O)n1` was 210 to 215 °C; that for `CCN(CC)C(=O)C(C#N)=Cc1cc(O)c(O)c([N+](=O)[O-])c1` was 156 to 160 °C. `O=C(NCNC(=O)c1ccccc1C(=O)C1CCCCC1)OCc1ccccc1` displayed a melting point of 152 to 155 °C.

`Nc1cnc2c(F)c(F)ccc2c1` registered a melting point of 161 °C. The value for `Cc1cc(=O)n2cccc(OCc3ccc(Cl)cc3Cl)c2n1` was 180 to 182 °C; that for `OC(CNCCCCCCOCCCCc1ccccc1)c1cc(OCc2ccccc2)cc(OCc2ccccc2)c1` (configuration not stated) was 65 to 67 °C. Then `CC(=O)c1cc2c(cc1NC(=O)c1coc3ccccc13)OCO2`, with 144 to 145 °C. Consider `Nc1nccc(-c2cccc(OCC(O)CN3CCN(c4ccc(Cl)cc4)CC3)c2)n1` (configuration not stated), for which the melting point was 141 to 142 °C. Then `CN(C)c1ccc2c(=O)[nH]c(=O)n(CCCCN3CCC(OC(c4ccccc4)c4ccccc4)CC3)c2c1`, with 203 to 204 °C. `CCOC(=O)N1Cc2ccccc2C(Oc2ccc(C(F)(F)F)cc2)C1` (configuration not stated) displayed a melting point of 84 °C. The value for `NC1=C(c2cccc(C(F)(F)F)c2)C(=O)OC1` was 165 °C; that for `O=C(CBr)CCCCCCN1C(=O)c2ccccc2C1=O` was 83 to 86 °C. `COc1ccc(N(CCN2CCC(C(=O)c3ccc(F)cc3)CC2)C(=O)c2ccc(N)cc2)c(OC)c1` came in with a melting point of 135 to 138 °C. Take `O=C(CC(=O)C1CC1)c1ccncn1`: the melting point lay in the range of 81 to 84 °C.

`CN1C(=O)C(c2c[nH]c3ccccc23)=C(c2cn(C)c3ccccc23)C1=O` registered a melting point of 168 to 171 °C.

In the case of `CC(C)(C)c1ccc(OCC(=O)Nc2nnc(-c3cccc(Oc4cccc(C(F)(F)F)c4)c3)s2)cc1`, the melting point was in the range of 179 to 180 °C. In the case of `CC(C)(C)n1cc(-c2ccc(S(=O)(=O)c3ccccc3)cc2)c2c(N)ncnc21`, the melting point was 222 to 224 °C. `CCN1c2ncc(CCc3ccnc(CO)c3)cc2C(=O)N(C)c2ccc(Cl)nc21` had a melting point of 133 to 134 °C. For the compound `CC[C@@H]1CN(c2c(F)c(N)c3c(=O)c(C(=O)O)cn(C4CC4)c3c2OC)CC[C@H]1O` (relative stereo), the melting point lay in the range of 217 to 219 °C. Then `CC(C)NCC(O)COC1c2ccccc2C(=O)N1c1ccccc1` (configuration not stated), with 92 °C; and `Cc1oc(-c2ccccc2)nc1COc1ccc2cc(Cn3cc(CCC(=O)O)c(-c4ccccc4)c3)ccc2c1`, with 122 to 123 °C; and `CCOC(=O)c1ccc(C=CCN2CCc3nc(N)sc3CC2)cc1`, with 111 to 115 °C.

For the compound `COc1ccc(C(=O)c2cccc([N+](=O)[O-])c2C)cc1`, the melting point is 110 to 113 °C.

`COc1ccc(N2CCN(c3c(C)c(C)c4c(c3C)C(O)(c3ccccn3)C(C)(C)O4)CC2)cc1` (configuration not stated): the melting point is 113 to 115 °C.

For the compound `CC(=O)c1c(NC(C)(C)C)nc(NC(C)(C)C)c(Br)c1C`, the melting point lay within 99 to 100 °C.

The compound `O=C(O)c1nc(-c2ccccc2Cl)nc2ccccc12` had a melting point of 171 °C. Then `N#Cc1c2ccccc2c(-c2cc(Br)c(O)c(Br)c2)c2c1sc1ccccc12`, with 321 to 323 °C. The value for `CCC(=O)CCCCCCCc1ccc(O)c(O)c1` was 76 to 78 °C; that for `CCOC(=O)CCn1c(=O)c2ccccc2n(CCCCCl)c1=O` was 71 to 72 °C; that for `CC(=Nc1ccc2c(c1)C(=O)c1ccc(N=C(C)N3CCCCC3)cc1C2=O)N1CCCCC1` was 233 to 235 °C. `CSC1CC(=O)N1Cc1ccccc1` (configuration not stated): the melting point lay in the range of 26 to 28 °C. The value for `CCCc1nn(C)c2c(=O)[nH]c(Cc3ccc4[nH]c(=O)ccc4c3)nc12` was over 300 °C; that for `COc1cc(C(C)C)c2c(c1)S(=O)(=O)NC2=O` was 188 °C. `O=C(O)Cc1onc(-c2ccccc2)c1-c1ccccc1`: the melting point is 153 to 157 °C.

The compound `CC(CCCC(C)(C)O)C1CCC2C3=CC=C4CC(O)C5OC5C4(C)C3CCC21C` (configuration not stated) had a melting point of 173 to 175 °C. The value for `O=C(Nc1ccc(-n2nc(C3CC3)cc2C2CC2)cc1)c1ccc2nccnc2c1` was 162 to 167 °C; that for `O=C(Nc1ccc(OCCCc2cccnc2)c2ccccc12)c1cc(F)cc(N2CCOCC2)c1` was 64 to 66 °C; that for `O=C(c1ccc(Nc2ncnc3ccccc23)cc1)N1CCN(c2ncc(Cc3ccccc3)cn2)CC1` was 245 to 247 °C. Compound `CCCOc1cc(C)c(NC(=O)C(C)Br)c(C)c1` (configuration not stated) registered a melting point of 148 °C. The value for `CCOc1cc2ncc(C#N)c(Nc3ccc4c(c3)OCO4)c2cc1OCC` was 200 to 203 °C; that for `O=C1NC(=S)NC(=O)C1=Cc1c[nH]c2ccccc12` was 320 °C. Consider `CCc1[nH]c(=O)c(C#N)cc1-c1ccncc1`, for which the melting point is over 300 °C. The value for `Cc1cc2nnc(C)n2nc1-c1ccc(C#N)cc1` was 242 to 244 °C; that for `COC(=O)COc1ccc([C@H]2c3ccc(OCc4ccccc4)cc3OC[C@H]2c2ccccc2)cc1` (racemic) was 143 to 144 °C. The value for `COc1cccc(CN=C(Cc2ccccc2)N2CC3C(=O)CCC(c4ccccc4)(c4ccccc4)C3C2)c1` (configuration not stated) was 127 °C; that for `COc1ccc2nc(Nc3ccc(F)cc3C)nc(N(C)c3ccccc3)c2c1` was 248 to 250 °C.

`CC(C)(C)OC(=O)NC1Cc2ccccc2N(c2ccccc2)C1` (configuration not stated) returned a melting point of 139 to 141 °C. The value for `COCCCN1CCC(CNC(=O)c2cc(Cl)c(N)c(OC)c2OC)C(O)C1` (configuration not stated) was 110 °C. Then `c1ccc(C(c2ccc3[nH]nnc3c2)n2ccnc2)cc1` (configuration not stated), with 179 °C; and `C#CCOc1cc(N)c(F)cc1Cl`, with 61 to 61.5 °C; and `O=c1[nH]c(=O)n(C2CC(O)C(COC3(c4ccccc4)c4ccccc4Oc4ccccc43)O2)cc1I` (configuration not stated), with 200 to 202 °C.

`O=C(CCCN1CCN(c2ccc(CO)c(Cl)c2)CC1)c1cccs1` registered a melting point of 131 to 133 °C. `Cc1c(F)cc(C(=O)O)c(Cl)c1N` had a melting point of 182 to 184 °C. Consider `CCCc1nc2c(N)nc3ccccc3c2n1CCCC(CC(C)C)=NO`, for which the melting point lay within 207 to 209 °C. The value for `O=c1[nH]c2ccc(Cl)cc2c2cc(CO)nn12` was 316 to 318 °C. For the compound `CC(C)OC(=O)c1ccccc1SNc1ccc(OC(F)(F)F)cc1`, the melting point is 120 to 121 °C. `N#Cc1cc(C(=O)NNC(=O)c2occc2-c2ccncc2)ccc1O` had a melting point of 280 °C. Consider `CC(=O)NC[C@H]1CN(c2ccc(N3CCC(=C(C#N)C(=O)N4CCCC4)CC3)c(F)c2)C(=O)O1`, for which the melting point is 125 to 128 °C. The value for `CC(=Cc1ccccc1)c1ccc2c(c1)C(C)(C)CCO2` was 64 to 65 °C.

`CC1(C)OC(=O)Nc2ccc(-c3ccc(CC#N)c(F)c3)cc21` displayed a melting point of 253 to 256 °C. `Cc1nc2c(N)nc3cccnc3c2n1CC1(O)CCN(S(C)(=O)=O)CC1` yielded a melting point of over 255 °C. Then `O=C(O)c1nn(-c2ccc(Cl)cc2Cl)c2c1SCc1cc(Cl)ccc1-2`, with 262 °C; and `CCCC(=NOCC)C1=C(O)CC(C2(C)CC(C(C)C)=NO2)CC1=O` (configuration not stated), with 85 °C; and `CCOc1ccc(-c2ccc3c(c2)C=C(C(=O)O)CCN3C=O)cc1F`, with 220 to 222 °C. Compound `COc1cc(CC(=O)NCCOCc2ccc(C)c(C)c2)ccc1O` yielded a melting point of 82 to 83 °C.
